# Assay results as given in patent US8138360B2, “Isotopically-labeled benzofuran compounds as imaging agents for amyloidogenic proteins” (University of Pittsburgh—of the Commonwealth System of …, priority 2005, dated 2012).
# Legend:
# [1] = target: T1, synthetic Aβ(1-40) (Homo sapiens, UniProt P05067); assay: Competition of [3H]BTA-1 binding from synthetic Aβ(1-40); conditions: for Ki: inhibition constant for competition of [3H]BTA-1 binding from synthetic Aβ(1-40), phosphate-buffered saline pH 7.4
# T1 construct: host or cells: chemically synthesised peptide
# Protocol: (§1) The characteristics of benzofuran derivative binding were analyzed using synthetic Aβ(1-40) and 2-(4′-[^3H]methylamino-phenyl)-benzothiazole ([^3H]BTA-1) in phosphate-buffered saline (pH 7.4) as previously described. Klunk et al., Life Sci. 69:1471 (2001); Mathis et al., Bioorg. Med. Chem. Lett., 12:295 (2002).
# as §1, with “7.4),” for “7.4)”, “(2002). The table below lists the inhibition constants (Ki) of the four compounds shown for competition of [^3H]BTA-1 binding from synthetic Aβ(1-40).” for “(2002).”
# [2] = Baboon brain entry study (PET); type: in vivo; conditions: 40 kg baboon, 8 mCi intravenously, PET imaging over 2 h post injection
# Protocol: A 40 kg baboon was anesthetized, immobilized, and placed on a ventilator. The baboon was positioned in a PET scanner to image the brain, and a transmission scan was performed to correct for attenuation. The baboon was injected intravenously with a solution containing 8 mCi of 5-Methoxy-2-(4′-fluorophenyl)benzofuran, and the brain was imaged in a series of increasing data collection time bins over 2 h post injection. Following data acquisition, the images were reconstructed and regions of interest were drawn. Decay and […] corrected time-activity curves (TAC) were generated for each of the regions to determine the quantitative time course of radioactivity in each brain region.
# T1 sequence (P05067 672-711): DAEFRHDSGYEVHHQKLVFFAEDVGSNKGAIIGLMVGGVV
SMILES,Ki [1] [nM],other results
COc1ccc2oc(-c3ccc(F)cc3)cc2c1 [drawing 23],3.7,–
Oc1ccc2oc(-c3ccc(F)cc3)cc2c1,27.7,–
COc1ccc2oc(-c3ccc(F)cc3)cc2c1 [5-Methoxy-2-(4′-fluorophenyl)benzofuran],–,"affinity of the ligand in vitro for aggregated amyloid ([1]; in vitro, in words): relatively high affinity; brain penetration of the radiotracer (time-activity curves) [2]: excellent brain penetration; clearance of radioactivity from normal baboon brain (time-activity curves) [2]: rapid clearance"
Oc1ccc2cc(-c3ccc(F)cc3)oc2c1,96,–
COc1ccc2cc(-c3ccc(F)cc3)oc2c1,3.9,–
Nc1ccc2oc(-c3ccc(F)cc3)cc2c1,28,–

# Second part, led by results:
Ki [1] [nM],SMILES,other results
2.8,CNc1ccc2oc(-c3ccc(F)cc3)cc2c1,–
2,CN(C)c1ccc2oc(-c3ccc(F)cc3)cc2c1,–
1.2,Oc1ccc2oc(-c3ccc(OCCCF)cc3)cc2c1,–
